According to patent US20230414826A1, “FIBRIN HYDROGELS” (Mayo Foundation for Medical Education and Research, priority 2020, published 2023):

Biological target: T1, fibrin gels (10 mg/mL fibrinogen, 1 U/mL thrombin) (Homo sapiens, UniProt P02671+P02675+P02679)
T1 construct: purchased Ethicon (Evicel)
T1 sequence (P02671 20-644 isoform P02671-2 limits assumed): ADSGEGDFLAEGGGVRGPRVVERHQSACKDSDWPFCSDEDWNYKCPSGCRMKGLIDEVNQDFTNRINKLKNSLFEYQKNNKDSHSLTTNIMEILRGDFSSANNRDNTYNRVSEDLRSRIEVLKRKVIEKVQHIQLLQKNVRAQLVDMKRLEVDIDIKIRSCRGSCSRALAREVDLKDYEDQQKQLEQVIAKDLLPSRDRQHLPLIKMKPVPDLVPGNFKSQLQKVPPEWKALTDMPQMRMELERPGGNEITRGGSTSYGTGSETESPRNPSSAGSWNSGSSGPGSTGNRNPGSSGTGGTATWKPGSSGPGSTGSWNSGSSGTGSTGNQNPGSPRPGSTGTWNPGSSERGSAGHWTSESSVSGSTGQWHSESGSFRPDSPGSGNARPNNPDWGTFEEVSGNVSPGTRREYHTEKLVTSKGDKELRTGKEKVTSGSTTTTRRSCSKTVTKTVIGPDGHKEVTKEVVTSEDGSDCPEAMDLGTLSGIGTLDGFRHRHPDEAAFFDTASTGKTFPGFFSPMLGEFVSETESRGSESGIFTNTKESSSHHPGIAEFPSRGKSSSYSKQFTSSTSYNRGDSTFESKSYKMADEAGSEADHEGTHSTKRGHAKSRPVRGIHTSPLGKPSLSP
T1 sequence (P02675 45-491 limits assumed): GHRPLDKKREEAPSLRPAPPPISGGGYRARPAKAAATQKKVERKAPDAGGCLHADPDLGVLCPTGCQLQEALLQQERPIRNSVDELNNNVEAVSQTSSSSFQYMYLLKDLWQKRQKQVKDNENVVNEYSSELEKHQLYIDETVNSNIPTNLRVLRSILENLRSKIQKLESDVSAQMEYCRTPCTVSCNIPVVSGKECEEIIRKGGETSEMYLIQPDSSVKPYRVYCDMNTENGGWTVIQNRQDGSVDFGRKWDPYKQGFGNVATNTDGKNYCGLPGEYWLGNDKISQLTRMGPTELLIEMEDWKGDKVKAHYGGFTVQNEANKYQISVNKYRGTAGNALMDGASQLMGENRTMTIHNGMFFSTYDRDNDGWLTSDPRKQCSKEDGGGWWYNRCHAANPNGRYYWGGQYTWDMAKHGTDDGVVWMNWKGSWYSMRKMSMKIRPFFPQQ
T1 sequence (P02679 27-437 isoform P02679-2 limits assumed): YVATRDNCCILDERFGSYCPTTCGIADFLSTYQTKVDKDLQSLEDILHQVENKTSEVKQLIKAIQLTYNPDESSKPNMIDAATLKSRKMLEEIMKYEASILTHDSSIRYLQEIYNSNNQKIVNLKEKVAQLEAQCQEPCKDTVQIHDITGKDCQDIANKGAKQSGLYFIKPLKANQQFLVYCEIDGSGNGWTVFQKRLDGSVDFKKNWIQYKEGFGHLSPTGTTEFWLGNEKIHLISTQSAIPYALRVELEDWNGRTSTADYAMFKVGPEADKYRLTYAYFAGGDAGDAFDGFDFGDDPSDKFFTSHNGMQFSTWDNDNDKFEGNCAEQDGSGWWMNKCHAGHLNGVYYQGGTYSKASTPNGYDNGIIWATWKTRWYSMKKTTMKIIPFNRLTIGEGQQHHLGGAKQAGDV
Assay: Rheometry gelation time, lower fibrinogen concentration fibrin gels
Type: biochemical
Conditions: n=3
Description: The viscoelastic mechanical properties of fibrin gels were characterized using oscillatory shear rheology on a Discovery Hybrid Rheometer 2 (TA Instruments; New Castle, DE) with a 20 mm cone-and-plate geometry at a 1° angle and a 20 mm stage. Inertia, friction, and rotational mapping calibrations were performed prior to each experiment. A Peltier temperature-controlled stage maintained 37° C. and a solvent trap was used to control evaporation during experiments lasting longer than 20 minutes. Gels were prepared by mixing specified concentrations of fibrinogen, dye, and thrombin on the stage. Immediately after combining, the geometry head was lowered to 500 μm (˜1-3 seconds) before beginning the first experiment. Gelation kinetics were monitored in time sweeps at 1% strain and 10 rad/s angular frequency. Strain sweeps were measured from 0.01-1000% strain at 1 Hz frequency. A frequency sweeps measured from 0.01-3 Hz at 1% strain was used to confirmed fibrin independence of frequency.
Rheometry was performed for samples with no dye (PBS alone), TB, EB, and PEG. Stock fibrinogen (Evicel) was used as is or diluted with PBS. Thrombin was diluted in PBS, with or without the various dyes. To determine the gelation time, a final mixture concentration of 10 mg/mL fibrinogen, 1 U/mL thrombin, and 0.01% w/v dye concentration was used. A time sweep was performed up to 20 minutes, after which some minor effects of evaporation in non-gelled samples introduced noise and could not reliably detect the storage modulus (g′). The gelation time was defined as the point at which the g′ exceeded the g″ (viscous modulus) and continued to increase over time.
Rheometry was used to confirm findings obtained using the coagulation analyzer and test conditions at higher fibrinogen concentrations used in high mechanical strength scaffolds. While clotting time and gelation time are similar properties, the terms are utilized discretely due to the differences in the respective assays. However, in controls for gels at higher fibrinogen concentrations, thrombin concentrations were decrease by orders of magnitude to assess initial gel time based on the sensitivity of the rheometer. In order to consistently detect a gelation time, when the g′ value (shear modulus) becomes greater than the g″ value (viscous modulus), conditions were set to […] fibrinogen and 1 U/mL thrombin final concentration using tissue glue for all samples. Sample conditions tested using rheometry included use of PBS (control), TB, EB, or PEG solution to dilute the thrombin so that the final gel concentration of the dye was 0.01% w/v. […]
Initially, g′ and g″ values were on the same scale (<2 Pa). […] Due to this, the gelation time was calculated as when the g′ values exceeded the g″ value and continued to grow over time (arrow, FIG. 5A). […]

Compound	gelation time (g′ exceeds g″) (0.01% w/v dye) [s]	gelation time (g′ exceeds g″) (0.005% w/v dye) [s]	gelation time (g′ exceeds g″) (0.12% w/v dye) [s]
Cc1cc(-c2ccc(/N=N/c3ccc4c(S(=O)(=O)O)cc(S(=O)(=O)O)c(N)c4c3O)c(C)c2)ccc1/N=N/c1ccc2c(S(=O)(=O)O)cc(S(=O)(=O)O)c(N)c2c1O [EB, Evans Blue]	232.1 ± 19.3	–	–
Cc1cc(-c2ccc(/N=N/c3c(S(=O)(=O)O)cc4cc(S(=O)(=O)O)cc(N)c4c3O)c(C)c2)ccc1/N=N/c1c(S(=O)(=O)O)cc2cc(S(=O)(=O)O)cc(N)c2c1O [TB, Trypan Blue]	168.7 ± 19.9	106.4 ± 22.5	206.7 ± 31.3
